Experimental data published in patent publication US5849777A, “Cell differentiation induction with mevalonate and mevalonolactone derivatives” (University of New Mexico, priority 1995, dated 1998).

System: Canine glioma
Experiment: in vivo tumor inhibition: canine model
Parameters: species or system dog
Method: Canine glioma was implanted surgically into the brains of four outbred dogs (2×10^6 cells). This procedure normally causes death by tumor growth in 14-28 days.
[…] F) by I.P. injection in phosphate buffered saline.
Tumor progress was assessed at weekly intervals by NMR, employing GdDPTA as imaging agent. This method illuminates vascularization at the surface of the tumor, and provides images which correlate well with neuropathological observations.

| SMILES | tumor status, later studies (10 μg/kg I.P. (data not shown)) | small tumor appeared on Day (pre-treated, 10 μg/kg I.P. M, W, F after implantation (FIG. 8)) [days] | tumor visible at Day (treatment begun on Day 11 (FIG. 9)) [days] |
| --- | --- | --- | --- |
| CC(C)c1nc(-c2ccccc2)n(-c2ccc(F)cc2)c1/C=C/[C@H](O)C[C@H](O)CC(=O)O [TF-002] | free of tumor | 12 | – |
| CC(C)c1c(/C=C/C(O)CC(O)CC(=O)O)n(-c2ccc(F)cc2)c2ccccc12 (stereo not drawn) [TF-004] | – | – | 10 |
